Measured values: patent publication US9309222B2, “Phenyl linked quinolinyl modulators of RORγt” (Janssen Pharmaceutica NV, priority 2012, dated 2016)
Where “and” joins values, the source holds several entries; their conditions need not be identical. Equal entries are not always repeated. Structures can show the parent of a compound that is named as a salt.

Legend:
[1] = target: T1, human RORγt ligand binding domain (RORγt LBD) (Homo sapiens, UniProt P51449); experiment: RORγt ThermoFluor assay (thermal shift, ligand binding affinity); settings: estimated from concentration response of thermal shift
T1 construct: His-tag (N); TurboTEV protease cleavage site (ENLYFQG) (N); made in house; host or cells: E. coli (pHIS1, modified pET vector)
T1 sequence (P51449 with tags, fused parts or gaps): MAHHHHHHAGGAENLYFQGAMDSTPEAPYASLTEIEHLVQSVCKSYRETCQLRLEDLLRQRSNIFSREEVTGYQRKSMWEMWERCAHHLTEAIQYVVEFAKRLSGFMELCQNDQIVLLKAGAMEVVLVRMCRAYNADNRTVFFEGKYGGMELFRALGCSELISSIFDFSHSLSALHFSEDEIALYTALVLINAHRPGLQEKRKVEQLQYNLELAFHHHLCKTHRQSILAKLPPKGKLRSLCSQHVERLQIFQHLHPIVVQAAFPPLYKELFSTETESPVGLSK
In short: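 Thermal shift of 0.065 mg/mL RORγt with 60 μM 1,8-ANS in 100 mM Hepes pH 7.0, 10 mM NaCl, 2.5 mM GSH, 0.002% Tween-20. Compounds in 1:2 series from 10 mM DMSO stock. Dye fluorescence (500 nm emission) tracked versus temperature; ΔTm used to derive KD.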

[2] = tested on: IL-17 production by CD4 T cells; experiment: Human Th17 assay (IL-17 production by CD4 T cells under Th17 differentiation conditions); type: cell-based; settings: IL-17 in supernatant after 3 days
In short: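 Primary CD4+ T cells from healthy-donor PBMC, preincubated 1 h with titrated compound (0.2% DMSO), then activated with anti-CD3/CD28 beads plus anti-IL4, anti-IFNγ, IL1β, IL23, IL6, TGFβ and IL2.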

human RORγt LBD = target: T2, human RORγt LBD (Homo sapiens, UniProt P51449); experiment: RORγt reporter assay (GAL4-RORγt LBD luciferase in HEK293T cells); type: cell-based; settings: for IC50: 24 hours compound treatment; for inhibition at 6 µM: HEK-293T, read-out: RORγt reporter Assay, % inhibition @ 6 μM, HEK293T cells, 6 μM compound
T2 construct: expressed in transfected cells
T2 sequence (P51449 258-518): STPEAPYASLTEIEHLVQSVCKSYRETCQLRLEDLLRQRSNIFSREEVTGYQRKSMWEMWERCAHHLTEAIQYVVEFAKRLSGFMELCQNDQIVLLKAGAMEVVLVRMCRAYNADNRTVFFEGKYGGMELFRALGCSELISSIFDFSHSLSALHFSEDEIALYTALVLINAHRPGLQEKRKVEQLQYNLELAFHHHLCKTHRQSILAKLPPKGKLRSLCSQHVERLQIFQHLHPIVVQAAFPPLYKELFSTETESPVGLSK
In short: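 Read-out is the firefly-to-renilla luciferase ratio versus compound concentration, after 24 h compound exposure of cells in phenol-red-free DMEM/5% lipid-reduced FCS. Cells were HEK293T bulk-transfected with a GAL4-responsive firefly reporter (pGL4.31) and GAL4 DBD–wild-type human RORγt LBD fusion (pBIND, renilla as transfection/viability control).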

Kd [1] [nM]	IC50 ([2]; Homo sapiens, CD4+ T, 72 h) [nM]	RORγt reporter Assay, % inhibition @ 6 μM (human RORγt LBD; HEK293T cells, 6 μM compound, 6 µM) [%]	IC50 (human RORγt LBD; HEK293T cells)	inhibition at 6 µM (human RORγt LBD) [%]	IC50 [2] [nM]	Structure (SMILES)
29	45	96	35 nM	–	–	COc1nc2c(C)cc(C(O)(c3ccc(F)cc3)c3cncn3C)cc2c(Cl)c1-c1cccc(F)c1 (single isomer, unassigned) [Example 178c, (4-Chloro-3-(3-fluorophenyl)-2-methoxy-8-methylquinolin-6-yl)(4-fluorophenyl)(1-methyl-1H-imidazol-5-yl)methanol]
140	300	–	320 nM	85	–	OC(c1ccc(C(F)(F)F)cc1)(c1cccnc1)c1ccc2nc(Cl)c(-c3ccccc3)c(Cl)c2c1 (centres unmarked) [Example 171, (2,4-Dichloro-3-phenylquinolin-6-yl)(pyridin-3-yl)(4-(trifluoromethyl)phenyl)methanol•TFA]
29	96	–	130 nM	103	–	Cn1cncc1C(O)(c1ccc2nc(C(F)(F)F)c(-c3ccccc3)c(C(F)(F)F)c2c1)c1ccccn1 (single isomer, unassigned) [Example 185b, (1-Methyl-1H-imidazol-5-yl)(3-phenyl-2,4-bis(trifluoromethyl)quinolin-6-yl)(pyridin-2-yl)methanol]
33	~1000	–	~300 nM	93	–	CCc1nc2ccc(C(O)(c3ccc(F)cc3)c3cccnc3)cc2c(Cl)c1-c1ccccc1 (centres unmarked) [Example 30, (4-Chloro-2-ethyl-3-phenylquinolin-6-yl)(4-fluorophenyl)pyridin-3-ylmethanol•TFA]
71	480	–	230 nM and ~400 nM	96	~700	Cn1cncc1C(O)(c1ccc(Cl)cc1)c1ccc2nc(Cl)c(-c3ccccc3Cl)c(Cl)c2c1 (racemic) [Example 153a, (4-Chlorophenyl)(2,4-dichloro-3-(2-chlorophenyl)quinolin-6-yl)(1-methyl-1H-imidazol-5-yl)methanol]
23	200	–	110 nM and ~100 nM	98	–	CN(C)c1nc2ccc(C(O)(c3cccnc3)c3cccc(Cl)c3)cc2c(Cl)c1-c1ccccc1 (centres unmarked) [Example 41, [4-Chloro-2-(dimethylamino)-3-phenylquinolin-6-yl](3-chlorophenyl)pyridin-3-ylmethanol•TFA]
18	56	–	47 nM and < 50 nM	100	–	CN(C)c1nc2ccc(C(O)(c3cccnc3)c3cccnc3)cc2c(Cl)c1-c1ccccc1 [Example 40, [4-Chloro-2-(dimethylamino)-3-phenylquinolin-6-yl](dipyridin-3-yl)methanol•TFA]
1.7	59	–	10 nM	105	–	Cn1cncc1C(O)(c1ccnc(Cl)c1)c1ccc2nc(Cl)c(-c3ccccc3)c(Cl)c2c1 (centres unmarked) [Example 66, (2-Chloropyridin-4-yl)(2,4-dichloro-3-phenylquinolin-6-yl)(1-methyl-1H-imidazol-5-yl)methanol•TFA]
100	> 6000	–	–	73	–	Cn1cncc1C(O)(c1ccc(Cl)cc1)c1ccc2nc(Cl)c(-c3cccc(Cl)c3)c(Cl)c2c1 (centres unmarked) [Example 187, (4-Chlorophenyl)(2,4-dichloro-3-(3-chlorophenyl)quinolin-6-yl)(1-methyl-1H-imidazol-5-yl)methanol]
44	150	–	120 nM	100	–	CCOc1nc2ccc(C(O)(c3ccncc3)c3cncn3C)cc2c(N(C)C)c1-c1ccccc1 (centres unmarked) [Example 92, [4-(Dimethylamino)-2-ethoxy-3-phenylquinolin-6-yl](1-methyl-1H-imidazol-5-yl)pyridin-4-ylmethanol•TFA]
67000	–	–	1900 nM and ~3000 nM	80	~5000	COc1nc2c(C)cc(C(O)(c3ccc(F)cc3)c3cncn3C)cc2c(C#N)c1-c1cccc(F)c1 (single isomer, unassigned) [Example 180b, 3-(3-Fluorophenyl)-6-((4-fluorophenyl)(hydroxy)(1-methyl-1H-imidazol-5-yl)methyl)-2-methoxy-8-methylquinoline-4-carbonitrile]
55	280	–	160 nM	90	–	OC(c1ccc(Cl)nc1)(c1cccc(F)c1)c1ccc2nc(Cl)c(-c3ccccc3)c(Cl)c2c1 (centres unmarked) [Example 57, (6-Chloropyridin-3-yl)(2,4-dichloro-3-phenylquinolin-6-yl)(3-fluorophenyl)methanol]
29	590	–	150 nM	98	–	COc1ccc(C(O)(c2ccc3nc(Cl)c(-c4ccccc4)c(Cl)c3c2)c2cncn2C)cn1 (centres unmarked) [Example 10, (2,4-Dichloro-3-phenylquinolin-6-yl)(6-methoxypyridin-3-yl)(1-methyl-1H-imidazol-5-yl)methanol•TFA]
2100	1200	–	250 nM	93	–	CSc1ncc(C(O)(c2ccc(Cl)cc2)c2ccc3nc(Cl)c(-c4ccccc4)c(Cl)c3c2)n1C (centres unmarked) [Example 145, (4-Chlorophenyl)(2,4-dichloro-3-phenylquinolin-6-yl)(1-methyl-2-(methylthio)-1H-imidazol-5-yl)methanol]
290	1100	–	520 nM	96	–	Cc1cc(C(O)(c2ccc(Cl)cc2)c2ccc3nc(N(C)C)c(-c4ccccc4)c(Cl)c3c2)on1 (centres unmarked) [Example 134, (4-Chloro-2-(dimethylamino)-3-phenylquinolin-6-yl)(4-chlorophenyl)(3-methylisoxazol-5-yl)methanol •TFA]
91	800	–	300 nM	96	–	CC(C)Oc1nc2ccc(C(O)(c3ccncc3)c3cncn3C)cc2c(N(C)C)c1-c1ccccc1 (centres unmarked) [Example 90, [4-(Dimethylamino)-2-(1-methylethoxy)-3-phenylquinolin-6-yl](1-methyl-1H-imidazol-5-yl)pyridin-4-ylmethanol•TFA]
24	320	–	79 nM	104	~200	OC(c1cccnc1)(c1cccnc1)c1ccc2nc(Cl)c(-c3ccccc3)c(Cl)c2c1 [Example 24, (2,4-Dichloro-3-phenylquinolin-6-yl)(dipyridin-3-yl)methanol•TFA]
26	210	–	91 nM	100	–	COc1ccc(C(O)(c2ccc3nc(Cl)c(-c4ccccc4)c(Cl)c3c2)c2cc(C)no2)cn1 (centres unmarked) [Example 131, (2,4-Dichloro-3-phenylquinolin-6-yl)(6-methoxypyridin-3-yl)(3-methylisoxazol-5-yl)methanol•TFA]
40	240	–	170 nM	91	–	OC(c1ccc(Cl)nc1)(c1cccc(Cl)c1)c1ccc2nc(Cl)c(-c3ccccc3)c(Cl)c2c1 (centres unmarked) [Example 56, (3-Chlorophenyl)(6-chloropyridin-3-yl)(2,4-dichloro-3-phenylquinolin-6-yl)methanol]
